Experimental data: paper PMC11956013, “Structure–Activity Relationships and Evaluation of 2-(Heteroaryl-cycloalkyl)-1H-indoles as Tauopathy Positron Emission Tomography Radiotracers” (Journal of Medicinal Chemistry, 2025)

Columns and labels:
[1] = molecular target: T1, OX2 (h) (Homo sapiens, UniProt O43614); experiment: Eurofins panel: OX2 (h) (agonist radioligand); conditions: compound concentration 1.0E-05 M
T1 sequence (O43614 1-444): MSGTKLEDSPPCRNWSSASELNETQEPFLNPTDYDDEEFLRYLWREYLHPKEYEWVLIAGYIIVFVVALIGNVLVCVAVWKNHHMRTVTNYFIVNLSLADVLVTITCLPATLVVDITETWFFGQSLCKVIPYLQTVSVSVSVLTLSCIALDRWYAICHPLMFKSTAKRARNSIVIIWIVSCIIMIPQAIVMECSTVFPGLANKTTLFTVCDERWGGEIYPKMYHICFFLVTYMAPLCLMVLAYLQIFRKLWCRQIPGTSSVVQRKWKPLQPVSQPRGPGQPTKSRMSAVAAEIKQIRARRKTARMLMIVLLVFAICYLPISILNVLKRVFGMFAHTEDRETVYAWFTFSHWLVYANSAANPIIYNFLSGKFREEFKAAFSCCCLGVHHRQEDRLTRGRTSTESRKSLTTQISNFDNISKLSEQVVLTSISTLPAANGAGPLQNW

[2] = molecular target: T2, human recombinant MAO-B (Homo sapiens, UniProt P27338); experiment: Eurofins IC50 determination at human recombinant MAO-B; type: binding
T2 construct: purchased Eurofins (contract assay)
T2 sequence (P27338 whole entry): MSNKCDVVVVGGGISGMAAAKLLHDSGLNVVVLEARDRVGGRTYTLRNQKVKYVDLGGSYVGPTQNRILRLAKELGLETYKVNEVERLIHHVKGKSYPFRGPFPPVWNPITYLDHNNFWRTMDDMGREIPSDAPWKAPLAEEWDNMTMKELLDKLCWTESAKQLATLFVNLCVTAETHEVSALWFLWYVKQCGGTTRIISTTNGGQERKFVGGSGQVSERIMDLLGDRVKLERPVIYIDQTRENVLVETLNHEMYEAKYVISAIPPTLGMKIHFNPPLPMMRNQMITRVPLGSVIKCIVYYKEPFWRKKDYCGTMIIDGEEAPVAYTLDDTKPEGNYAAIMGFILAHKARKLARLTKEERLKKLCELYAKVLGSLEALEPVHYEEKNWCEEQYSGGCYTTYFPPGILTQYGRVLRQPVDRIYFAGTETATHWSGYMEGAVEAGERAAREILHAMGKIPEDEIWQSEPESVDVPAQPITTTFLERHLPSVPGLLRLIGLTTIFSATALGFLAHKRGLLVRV

[3] = molecular target: CCK1 (CCKA) (h) (Homo sapiens, UniProt P32238); experiment: biochemical
Chain of CCK1 (CCKA) (h) (P32238 whole entry): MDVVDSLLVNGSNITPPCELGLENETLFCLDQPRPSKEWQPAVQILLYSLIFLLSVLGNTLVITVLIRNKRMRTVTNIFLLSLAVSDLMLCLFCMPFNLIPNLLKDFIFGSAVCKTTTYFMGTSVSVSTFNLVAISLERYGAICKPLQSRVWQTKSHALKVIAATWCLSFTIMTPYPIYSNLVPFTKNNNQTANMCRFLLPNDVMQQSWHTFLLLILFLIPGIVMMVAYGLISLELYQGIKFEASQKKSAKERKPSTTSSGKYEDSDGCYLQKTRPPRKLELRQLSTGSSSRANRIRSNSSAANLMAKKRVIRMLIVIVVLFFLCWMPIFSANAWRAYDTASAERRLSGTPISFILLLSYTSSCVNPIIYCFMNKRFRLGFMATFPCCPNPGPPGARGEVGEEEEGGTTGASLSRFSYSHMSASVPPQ

SMILES: Fc1nc(N2CCOCC2)ccc1-c1cc2ccccc2[nH]1 [Compound 75, 4-(6-Fluoro-5-(1H-indol-2-yl)pyridin-2-yl)morpholine]
- % Inhibition, Specific binding [1]: 0.786%
- IC50 [2]: 3 µM
- inhibition at 10 µM [3]: -78.7%
